In patent US12077537B2 (Gilead Sciences, Inc., priority 2020, dated 2024) one finds EC50 data, which are given here for 11 molecules.

This test relates to HIV-IIIb. Nature of the test: Antiviral assay in MT4 cells. Type of test: cell-based. Particulars: Human immunodeficiency virus 1, MT4, 120 h; MT-4 cells mixed with HIV-IIIb at m.o.i. 0.003; 5 days at 37° C.; CellTiter-Glo luminescence; 50% decrease in signal, a measure of HIV-1 replication. In a few lines:
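Compound, tested at ten 3-fold dilutions in quadruplicate in 10% FBS medium, received MT-4 cells pre-mixed 1 hour with HIV-IIIb (m.o.i. 0.003). Protection was read as luminescent cell viability (CellTiter-Glo) after 5 days' culture at 37° C.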
(In general: ATP-based viability assays read luminescence as a measure of living cells.)

Molecules are shown by their SMILES.

The term EC50 denotes the concentration that produces a half-maximal response.

As for `NC(=O)c1cc(-c2cc3sc(N4CCN(c5ccc6c(c5)OCCO6)CC4)nc3nc2[C@H](Cc2cc(F)cc(F)c2)NC(=O)Cn2nc(C(F)F)c3c2C(F)(F)CCC3(F)F)ccc1F` [Compound 139, (S)-5-(5-(1-(2-(3-(difluoromethyl)-4,4,7,7-tetrafluoro-4,5,6,7-tetrahydro-1H-indazol-1-yl)acetamido)-2-(3,5-difluorophenyl)ethyl)-2-(4-(2,3-dihydrobenzo[b][1,4]dioxin-6-yl)piperazin-1-yl)thiazolo[4,5-b]pyridin-6-yl)-2-fluorobenzamide], the EC50 turned out to be 0.545 µM.
Then `Cn1nc(NS(C)(=O)=O)c2cccc(-c3cc4sc(NCc5ncc[nH]5)nc4nc3[C@H](Cc3cc(F)cc(F)c3)NC(=O)Cn3nc(C(F)(F)F)c4c3C(F)(F)[C@@H]3C[C@H]43)c21` [Example 71, N—((S)-1-(2-(((1H-imidazol-2-yl)methyl)amino)-6-(1-methyl-3-(methylsulfonamido)-1H-indazol-7-yl)thiazolo[4,5-b]pyridin-5-yl)-2-(3,5-difluorophenyl)ethyl)-2-((3bS,4aR)-5,5-difluoro-3-(trifluoromethyl)-3b,4,4a,5-tetrahydro-1H-cyclopropa[3,4]cyclopenta[1,2-c]pyrazol-1-yl)acetamide], with 0.0522 µM; and `O=C(Cn1nc(C(F)(F)F)c2c1C(F)(F)[C@@H]1C[C@H]21)N[C@@H](Cc1cc(F)cc(F)c1)c1nc2nc(-c3ccc4c(c3)C(=O)NC4)sc2cc1-c1ccc2c(c1)C(=O)NC2` [Compound 143, N—((S)-1-(2,6-bis(3-oxoisoindolin-5-yl)thiazolo[4,5-b]pyridin-5-yl)-2-(3,5-difluorophenyl)ethyl)-2-((3bS,4aR)-5,5-difluoro-3-(trifluoromethyl)-3b,4,4a,5-tetrahydro-1H-cyclopropa[3,4]cyclopenta[1,2-c]pyrazol-1-yl)acetamide], with 0.0155 µM.
For `Cn1cc(-c2nc3nc([C@H](Cc4cc(F)cc(F)c4)NC(=O)Cn4nc(C(F)F)c5c4C(F)(F)[C@@H]4C[C@H]54)c(-c4ccc(Cl)c5c(NS(C)(=O)=O)nn(C)c45)cc3[nH]2)cn1` [Example 98, N—((S)-1-(6-(4-chloro-1-methyl-3-(methylsulfonamido)-1H-indazol-7-yl)-2-(1-methyl-1H-pyrazol-4-yl)-1H-imidazo[4,5-b]pyridin-5-yl)-2-(3,5-difluorophenyl)ethyl)-2-((3bS,4aR)-3-(difluoromethyl)-5,5-difluoro-3b,4,4a,5-tetrahydro-1H-cyclopropa[3,4]cyclopenta[1,2-c]pyrazol-1-yl)acetamide] the value was 0.003 µM.
As for `NC(=O)c1cc(-c2cc3nc(O)oc3nc2[C@H](Cc2cc(F)cc(F)c2)NC(=O)Cn2nc(C(F)(F)F)c3c2C(F)(F)[C@@H]2C[C@H]32)ccc1F` [Example 114, 5-(5-((S)-1-(2-((3bS,4aR)-5,5-difluoro-3-(trifluoromethyl)-3b,4,4a,5-tetrahydro-1H-cyclopropa[3,4]cyclopenta[1,2-c]pyrazol-1-yl)acetamido)-2-(3,5-difluorophenyl)ethyl)-2-hydroxyoxazolo[5,4-b]pyridin-6-yl)-2-fluorobenzamide], the midpoint of the response, the EC50, lay at 0.589 µM.
For the molecule `Cn1nc(NS(C)(=O)=O)c2c(Cl)ccc(-c3cc4nc(C5CC5)oc4nc3[C@H](Cc3cc(F)cc(F)c3)NC(=O)Cn3nc(C(F)F)c4c3C(F)(F)[C@@H]3C[C@H]43)c21` [Example 110, N—((S)-1-(6-(4-chloro-1-methyl-3-(methylsulfonamido)-1H-indazol-7-yl)-2-cyclopropyloxazolo[5,4-b]pyridin-5-yl)-2-(3,5-difluorophenyl)ethyl)-2-((3bS,4aR)-3-(difluoromethyl)-5,5-difluoro-3b,4,4a,5-tetrahydro-1H-cyclopropa[3,4]cyclopenta[1,2-c]pyrazol-1-yl)acetamide], the EC50 worked out at 0.0119 µM.
Molecule `Cn1nc(NS(C)(=O)=O)c2cccc(-c3cc4sc(N5CC6(CCNCC6)C5)nc4nc3[C@H](Cc3cc(F)cc(F)c3)NC(=O)Cn3nc(C(F)(F)F)c4c3C(F)(F)[C@@H]3C[C@H]43)c21` [Example 91, 2-((3bS,4aR)-5,5-difluoro-3-(trifluoromethyl)-3b,4,4a,5-tetrahydro-1H-cyclopropa[3,4]cyclopenta[1,2-c]pyrazol-1-yl)-N—((S)-2-(3,5-difluorophenyl)-1-(6-(1-methyl-3-(methylsulfonamido)-1H-indazol-7-yl)-2-(2,7-diazaspiro[3.5]nonan-2-yl)thiazolo[4,5-b]pyridin-5-yl)ethyl)acetamide] displayed an EC50 of 0.0649 µM.
On to `NC(=O)c1cc(-c2cc3sc(N4CCN(c5ccc(C(F)(F)F)cc5)CC4)nc3nc2[C@H](Cc2cc(F)cc(F)c2)NC(=O)Cn2nc(C(F)(F)F)c3c2C(F)(F)[C@@H]2C[C@H]32)ccc1F` [Compound 141, 5-(5-((S)-1-(2-((3bS,4aR)-5,5-difluoro-3-(trifluoromethyl)-3b,4,4a,5-tetrahydro-1H-cyclopropa[3,4]cyclopenta[1,2-c]pyrazol-1-yl)acetamido)-2-(3,5-difluorophenyl)ethyl)-2-(4-(4-(trifluoromethyl)phenyl)piperazin-1-yl)thiazolo[4,5-b]pyridin-6-yl)-2-fluorobenzamide], for which the half-maximal effective concentration (EC50) is 1.81 µM.
Turning to `Cn1nc(NS(C)(=O)=O)c2cccc(-c3cc4[nH]c(-c5ccccc5)nc4nc3[C@H](Cc3cc(F)cc(F)c3)NC(=O)Cn3nc(C(F)F)c4c3C(F)(F)[C@@H]3C[C@H]43)c21` [Example 95, 2-((3bS,4aR)-3-(difluoromethyl)-5,5-difluoro-3b,4,4a,5-tetrahydro-1H-cyclopropa[3,4]cyclopenta[1,2-c]pyrazol-1-yl)-N—((S)-2-(3,5-difluorophenyl)-1-(6-(1-methyl-3-(methylsulfonamido)-1H-indazol-7-yl)-2-phenyl-1H-imidazo[4,5-b]pyridin-5-yl)ethyl)acetamide], it took 0.0675 µM to reach a half-maximal effect (EC50).
Molecule `Cn1nc(NS(C)(=O)=O)c2c(Cl)ccc(-c3cc4[nH]c(C(C)(C)O)nc4nc3[C@H](Cc3cc(F)cc(F)c3)NC(=O)Cn3nc(C(F)(F)F)c4c3C(F)(F)[C@@H]3C[C@H]43)c21` [Example 106, N—((S)-1-(6-(4-chloro-1-methyl-3-(methylsulfonamido)-1H-indazol-7-yl)-2-(2-hydroxypropan-2-yl)-1H-imidazo[4,5-b]pyridin-5-yl)-2-(3,5-difluorophenyl)ethyl)-2-((3bS,4aR)-5,5-difluoro-3-(trifluoromethyl)-3b,4,4a,5-tetrahydro-1H-cyclopropa[3,4]cyclopenta[1,2-c]pyrazol-1-yl)acetamide] gave an EC50 of 0.0064 µM.
Regarding `Cn1nc(NS(C)(=O)=O)c2c(Cl)ccc(-c3cc4c(nc3[C@H](Cc3cc(F)cc(F)c3)NC(=O)Cn3nc(C(F)F)c5c3C(F)(F)[C@@H]3C[C@H]53)NCC(=O)N4)c21` [Example 108, N—((S)-1-(7-(4-chloro-1-methyl-3-(methylsulfonamido)-1H-indazol-7-yl)-2-oxo-1,2,3,4-tetrahydropyrido[2,3-b]pyrazin-6-yl)-2-(3,5-difluorophenyl)ethyl)-2-((3bS,4aR)-3-(difluoromethyl)-5,5-difluoro-3b,4,4a,5-tetrahydro-1H-cyclopropa[3,4]cyclopenta[1,2-c]pyrazol-1-yl)acetamide], a half-maximal response (EC50) required 0.0345 µM.
